Measurements reported in patent US20040248913A1, “(Pyridinyl and pyrimidyl) trienoic acid derivatives as retinoid x receptor modulators” (priority 2001, published 2004).

Biological target: T1, RXRα homodimer (Homo sapiens, UniProt P19793)
T1 sequence (P19793 1-462): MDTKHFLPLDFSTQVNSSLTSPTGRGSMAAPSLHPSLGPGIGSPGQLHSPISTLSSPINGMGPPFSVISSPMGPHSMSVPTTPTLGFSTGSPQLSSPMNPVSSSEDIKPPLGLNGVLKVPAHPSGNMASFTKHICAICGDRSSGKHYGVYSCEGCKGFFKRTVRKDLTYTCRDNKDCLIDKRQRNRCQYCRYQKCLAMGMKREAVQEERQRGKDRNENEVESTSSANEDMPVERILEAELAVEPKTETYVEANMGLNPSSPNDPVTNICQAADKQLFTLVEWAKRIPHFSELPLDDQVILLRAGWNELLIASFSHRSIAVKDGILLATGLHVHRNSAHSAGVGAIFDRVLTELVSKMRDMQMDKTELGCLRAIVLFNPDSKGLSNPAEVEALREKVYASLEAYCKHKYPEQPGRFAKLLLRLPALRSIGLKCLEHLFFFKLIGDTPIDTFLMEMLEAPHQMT
Assay: RXR homodimer co-transfection assay in CV-1 cells (CRBPIITKLUC reporter)
Type: cell-based
Conditions: for Agonist Efficacy (%): mean of n > 2; for Antagonist Efficacy (%) / IC50: RXRα homodimer; for Antagonist Efficacy (%): % of maximal inhibition in presence of fixed concentration (3.2×10^−8 M) of known RXR agonist; for IC50: in presence of known RXR agonist, read-out: Antagonist IC50; for Activity in the context of RXR homodimers (in words): summary of Table 1
Description: This assay is described in further detail in U.S. Pat. Nos. 4,981,784 and 5,071,773, the disclosures of which are incorporated herein by reference.
The co-transfection assay provides a method for identifying functional agonists which mimic, or antagonists which inhibit, the effect of native hormones, and quantifying their activity for responsive IR proteins. In this regard, the co-transfection assay mimics an in vivo system in the laboratory. Importantly, activity in the co-transfection assay correlates very well with known in vivo activity, such that the co-transfection assay functions as a qualitative and quantitative predictor of a tested compounds in vivo pharmacology. See, e.g., T. Berger et al. 41 J. Steroid Biochem. Molec. Biol. 773 (1992), the disclosure of which is herein incorporated by reference.
In the co-transfection assay, cloned cDNA for one or more IRs (e.g., human RARα, RXRα, or PPARγ), alone or in combination (i.e. for heterodimer assays) under the control of a constitutive promoter (e.g., the SV 40, RSV or CMV promoter) is introduced by transfection (a procedure to introduce exogenous genes into cells) into a background cell substantially devoid of endogenous IRs. These introduced gene(s) direct the recipient cells to make the IR protein(s) of interest. A further gene is also introduced (co-transfected) into the same cells in conjunction with the IR gene(s). This further gene, comprising the cDNA for a reporter protein, such as firefly luciferase (LUC), controlled by an appropriate hormone responsive promoter containing a hormone response element (HRE). This reporter plasmid functions as a reporter for the transcriptional-modulating activity of the target IR(s). Thus, the reporter acts as a surrogate for the products (mRNA then protein) normally expressed by a gene under control of the target receptor(s) and their native hormone(s).
Exposing the transfected cells to an agonist ligand compound increases reporter activity in the transfected cells. This activity can be conveniently measured, e.g., by increasing luciferase production and enzymatic activity, which reflects compound-dependent, IR-mediated increases in reporter transcription. To detect antagonists, the co-transfection assay is carried out in the presence of a constant concentration of an known agonist to the target IR (e.g., 4-[(3,5,5,8,8-Pentamethyl-5,6,7,8-tetrahydro-2-naphthyl)ethenyl]benzoic acid (Ligand Pharmaceuticals, Inc.) for RXRα) known to induce a defined reporter signal. Increasing concentrations of an antagonist will decrease the reporter signal (e.g., luciferase production). The co-transfection assay is therefore useful to detect both agonists and antagonists of specific IRs. Furthermore, it determines not only whether a compound interacts with a particular IR, but whether this interaction mimics (agonizes) or blocks (antagonizes) the effects of native or synthetic regulatory molecules on target gene expression, as well as the specificity and strength of this interaction.
The receptor expression plsmid was cotransfected along with a reporter plasmid at 50 ng/well, the internal control plasmid pRS-β-Gal at 50 ng/well and filler DNA, pGEM, at 90 ng/well.

[1] = RXRα homodimer cotransfection, CV-1 cells
[2] = not calculated if efficacy <10%

SMILES | Agonist Efficacy (%) [1] [%] | Antagonist Efficacy (%) | IC50 [2] [nM] | Activity in the context of RXR homodimers (in words) | EC50 (RXRα homodimer cotransfection, CV-1 cells, not calculated if efficacy <10%, read-out: Agonist EC50) [nM]
CCCCOc1c(\C(C)=C/C=C/C(C)=C/C(=O)O)cc(C(C)C)nc1C(C)C [Example 1, 7-(3-Butoxy-2,6-diisopropyl-pyridin-4-yl)-3-methyl-octa-2(E),4(E),6(Z)-trienoic Acid] | 1 | 93 | 3.5 | highly efficacious and potent antagonist activity with little or no agonists activity | –
CCOc1c(\C(C)=C/C=C/C(C)=C/C(=O)O)cc(C(C)C)nc1C(C)C [Example 3, 7-(2,6-Diisopropyl-3-ethoxy-pyridin-4-yl)-3-methyl-octa-2(E),4(E),6(Z)-trienoic acid] | 51 | 3 | – | agonist activity | 2
C/C(=C/C=C/C(C)=C/C(=O)O)c1cc(C(C)C)nc(C(C)C)c1OCC(F)F [Example 4, 7-[3-(2,2-Difluoro-ethoxy)-2,6-diisopropyl-pyridin-4-yl]-3-methyl-octa-2(E),4(E),6(Z)-trienoic acid] | 9 | 76 | 8.7 | highly efficacious and potent antagonist activity with little or no agonists activity | –
CCCOc1c(\C(C)=C/C=C/C(C)=C/C(=O)O)cc(C(C)C)nc1C(C)C [Example 2, 7-(2,6-Diisopropyl-3-propoxy-pyridin-4-yl)-3-methyl-octa-2(E),4(E),6(Z)-trienoic Acid] | 4 | 88 | 4.1 | highly efficacious and potent antagonist activity with little or no agonists activity | –
C/C(=C/C=C/C(C)=C/C(=O)O)c1cc(C(C)C)nc(C(C)C)c1OCC(F)(F)F [Example 5, 7-[2,6-Diisopropyl-3-(2,2,2-trifluoro-ethoxy)-pyridin-4-yl]-3-methyl-octa-2(E),4(E),6(Z)-trienoic acid] | 3 | 85 | 8 | highly efficacious and potent antagonist activity with little or no agonists activity | –
